Measured values from patent US9139809B2, “Bacterial vaccines with cell wall-associated ceramide-like glycolipids and uses thereof” (priority 2009, dated 2015).

Key:
serum cytokines = conditions: mice, cited from earlier work
M. tuberculosis H37Rv = conditions: in vivo
tumor and malaria = conditions: mice; cited from earlier work
malarial parasite = conditions: mice, αGalCer as a therapeutic; cited from earlier work
M. tuberculosis = conditions: αGalCer as a therapeutic; cited from earlier work

SMILES	levels of Th1 cytokines IL-12 and IFNγ (serum cytokines; compared with αGalCer)	improvement of the protective efficacy of BCG, comparison of the two glycolipids (M. tuberculosis H37Rv)	anti-tumor and anti-malarial activity compared with αGalCer (tumor and malaria)	serum cytokines after a single injection (IFNγ, IL-12 and IL-4) (serum cytokines; single injection)	malarial parasite load (malarial parasite)	survival of M. tuberculosis infected mice (M. tuberculosis)
CCCCCCCCCCCCCCCCCCCCCCCCCC(=O)N[C@@H](CCC1OC(CO)C(O)C(O)C1O)[C@H](O)[C@H](O)CCCCCCCCCCCCCC (stereo partly drawn) [α-C-GalCer, (2S,3S,4R)-1-CH2-(α-galactopyranosyl)-N-hexacosanoyl-2-amino-1,3,4-octadecanetriol]	induces higher levels	superior to αGalCer	superior anti-tumor and anti-malarial activity as compared to αGalCer			
CCCCCCCCCCCCCCCCCCCCCCCCCC(=O)N[C@@H](CO[C@H]1O[C@H](CO)[C@H](O)[C@H](O)[C@H]1O)[C@H](O)[C@H](O)CCCCCCCCCCCCCC [αGalCer, (2S,3S,4R)-1-O-(α-D-galactopyranosyl)-N-hexacosanoyl-2-amino-1,3,4-octadecanetriol]				induces a cytokine storm in the serum	reduce malarial parasite load	prolong the survival
